Measured values as given in patent US20110201623A1, “Crystalline Form Of A Cyclopropyl Benzamide Derivative” (priority 2010, published 2011).

Assays:
[1] = molecular target: human H3 receptor (445 aa) (Homo sapiens, UniProt Q9Y5N1); assay: Human histamine H3 binding assay with the agonist radioligand [3H]-N-α-methylhistamine; conditions: membranes, SPA, 1.5 nmol/L radioligand, pH 7.4, room temperature; read-out: IC50 equivalent of pIC50, inhibition of specific binding of [3H]-N-α-Methyl Histamine to the human H3 receptor (converted)
Protocol: Human Histamine H3 Binding Assay with the Agonist Radioligand [^3H]-N-a-Methylhistamine
The H3 binding assay was used to evaluate the ability of a compound of formula (I) to inhibit [^3H]-N-a-methylhistamine under the conditions as described below: All binding assays were performed in a buffer consisting of 20 mmol/L Hepes, 100 mmol/L NaCl. The pH was set at 7.4 at room temperature. Liquid handling robots were used to prepare, in drug plates, 10 points dose response curves of the compound of formula (I) (3-fold serial dilutions, starting at 10 μmol/L). The assay, performed in 96-well plates, consisted of 100 μL, containing 20 μL of buffer alone for total binding (column #1), 20 μL of imetit (5×) for the non specific binding (column #2), 20 μL of the compound of formula (I) (5×) at varying concentrations (column #3 to #12), plus 20 μL of [3H]-N-a-Methylhistamine (25 000 dpm/well, 1.5 nmol/L) in all wells and finally 60 μL of membranes (20 μg of protein/well) mix is added to start the reaction. Membranes and SPA beads (1000 μg/well) were mixed together and incubated for 30 minutes at room is temperature prior to the start of the assay. […] Plates were then mixed on an orbital mixer, incubated 90 minutes at room temperature, and then read on a Trilux 384™ counter.

hH3 receptors = hH3 receptors (Homo sapiens, UniProt Q9Y5N1); assay: [35S]GTPγS binding assay, antagonist mode (RαMH EC80); type: biochemical; conditions: RαMH at EC80 (30 nmol/L for hH3), membranes, SPA; read-out: IC50 equivalent of pIC50, inhibition of H3 agonist R-α-Methyl-Histamine stimulated [35S]GTPγS binding (converted)
Protocol: Guanosine 5′-O-(3-[^35S]thio)triphosphate [GTPgS] Binding Assay
[^35S]GTPγS binding assay was performed in a buffer consisting of 20 mmol/L Hepes, 100 mmol/L NaCl, 10 mmol/L MgCl2, 3 μg/mL saponine and 10 μmol/L GDP. The pH was set at 7.4 at room temperature. Liquid handling robots were used to prepare, in drug plates, 10 points dose response curves of the compound of formula (I) (3-fold serial dilutions, starting at 1 μmol/L for hH3 receptors and 10 μmol/L for rH3 receptors). The assay, performed in 96-well plates, consisted of 120 μL, containing 20 μL of RαMH (EC80, antagonist mode), 20 μL the compound of formula (I) at varying concentrations, 20 μL of the tracer [^35S]GTPγS (60000 dpm/well, 0.2 nmol/L) and finally 60 μL of membranes (10 μg of protein/well for hH3) mix is added to start the reaction. Membranes, SPA beads (125 μg/well) and GDP were mixed together and incubated for 30 minutes at room temperature prior to the start of the assay. Eight wells were used to define baseline and RαMH EC80 (30 nmol/L for hH3 receptors) define the positive control. Plates were then mixed (2 minutes) on an orbital mixer, incubated 60 minutes at room temperature, and then read on a Trilux 384™ counter.

Sequence of human H3 receptor (445 aa) (Q9Y5N1 whole entry): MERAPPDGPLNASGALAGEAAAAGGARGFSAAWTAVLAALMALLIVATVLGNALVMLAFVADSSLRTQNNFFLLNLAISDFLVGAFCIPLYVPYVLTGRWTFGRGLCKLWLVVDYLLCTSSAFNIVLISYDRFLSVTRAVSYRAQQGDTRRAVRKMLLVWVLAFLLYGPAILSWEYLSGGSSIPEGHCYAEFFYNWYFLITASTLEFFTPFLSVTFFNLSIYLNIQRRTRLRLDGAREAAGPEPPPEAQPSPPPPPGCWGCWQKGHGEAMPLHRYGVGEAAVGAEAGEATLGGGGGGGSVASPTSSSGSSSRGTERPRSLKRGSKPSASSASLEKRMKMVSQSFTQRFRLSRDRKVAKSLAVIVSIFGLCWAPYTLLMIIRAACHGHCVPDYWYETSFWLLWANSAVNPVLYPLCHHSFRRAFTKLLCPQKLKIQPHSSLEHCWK
Sequence of hH3 receptors (Q9Y5N1 whole entry): as above

**Q.** Which IC50 [1] does the source give for `NC(=O)c1ccc([C@H]2C[C@@H]2C(=O)N2CCN(C3CCC3)CC2)cc1` [Compound (I), 4-{(1S,2S)-2-[(4-cyclobutylpiperazin-1-yl)carbonyl]-cyclopropyl}-benzamide] here?
**A.** 13 nM

**Q.** And the IC50 (hH3 receptors)?
**A.** 3 nM
